Measurements from patent publication US5480870A, “Tumor growth-inhibiting somatostatin analogues, pharmaceutical compositions containing them and process for preparing same” (Biosignal Kutato-Fejlesztokft, priority 1991, dated 1996).

Columns and labels:
[1] = test system: rat hypophysis (GH release); assay: Assay of the growth hormone (GH): GHRH-elicited GH release, superfusion method; format: cell-based; details: percentage of decrease (-) or increase (+) in GH amount released by GHRH
Protocol: The release or inhibition, respectively, of the release of GH were measured on rat hypophysis by using the superfusion method [Vigh et al.: Peptides 5, 241 (1984)]. As control, the GH amount was considered which was released by the GH releasing hormone (GHRH) given in the same dose as the sample. The activity of the somatostatin analogue was expressed as the percentage of decrease or increase, respectively, in the GH amount released by GHRH (Table II).

[2] = test system: HT 29: tumour cell line of human colon origin; assay: Assay of the inhibition of cell division, HT 29; format: cell-based
Protocol: (§1) The incorporation of [^3 H]-thymidine to tumour cells of various origin and measurement of the cell count were carried out according to the method of Keri et al. [Tumor Biology 9, 315 (1988)]. The biological activity of the analogues was expressed as the percentage of inhibition of the labelled thymidine incorporation or increase in the count of untreated cells used as control (Table III).

[3] = test system: MCF 7: tumour cell line of human breast origin; assay: Assay of the inhibition of cell division, MCF 7; format: cell-based
Protocol: as §1

[4] = test system: tyrosine kinase (HT 29 cells); assay: Assay of the tyrosine kinase activity, HT 29 cells; format: cell-based, human
Protocol: The tyrosine kinase activity was also determined according to the method of Keri et al. [Tumor Biology 9, 315 (1988)]. The activity of the analogues was characterized on the basis of their inhibitory effect in comparison to the incorporation of ^32 p isotope to untreated cells used as control (Table IV).

Substance	Change of GH release [1]	Inhibition (%) of cell division ([2]; HT 29, dose 10 μg) [%]	Inhibition (%) of cell division ([3]; MCF 7, dose 20 μg) [%]	Inhibition (%) of tyrosine kinase activity ([4]; HT 29, dose 10 μg) [%]	Inhibition (%) of tyrosine kinase activity ([4]; HT 29, dose 30 μg) [%]	Inhibition (%) of cell division ([3]; MCF 7, dose 40 μg) [%]	Inhibition (%) of cell division ([2]; HT 29, dose 20 μg) [%]	Inhibition (%) of tyrosine kinase activity ([4]; HT 29, dose 1 μg, 32P incorporation vs untreated cells) [%]
Ac-Sar-Ala-Tyr-Tyr-Aa-Lys-Val-Phe-Trp-NH2 [Example 7]	-20%	28	24	17	23			
D-Phe-Tyr-Tyr-Aa-Lys-Val-Phe-Trp-NH2 [Example 6]	+26%					48		
D-Phe-Cys-Tyr-D-Trp-Lys-Val-Cys-Thr-NH2 [Example 2]	-93%		45	22			27	35
